Assay results as given in publication PMC6289163 (Tuberculosis (Edinburgh, Scotland), 2018).

How the values were obtained:
BCG expressing luxAB = type: cell-based, Mycobacterium bovis bacillus Calmette-Guerin (BCG) Montreal; conditions: 6.3-100 μM
[1] = test system: intracellular M. tuberculosis H37Rv in primary human macrophages; type: cell-based, Mycobacterium tuberculosis; conditions: positive control, 0.1 μg/ml, 0.7 μM; 6 days; not shown

Molecule: WKWLKKWIK-OHxTFA [WKWLKKWIKG-OHxTFA]
- mycobacterial inhibitory capacity (BCG expressing luxAB): bacterial killing capacity was overall lower than that of WKWLKKWIKG-NH2xHOAc

Molecule: NNC(=O)c1ccncc1 [Isoniazid]
- intracellular killing [1]: same intracellular killing as 50 μM of NZX
